# PubChem BioAssay AID180 (DTP/NCI, 2004)
# Several values for one entry are separate records, joined by “and”; a condition that tells them apart may be missing. Identical values can stand only once.
# System: BDF1 mice, Adenocarcinoma 755 s.c., tumor weight T/C
# Assay: NCI In Vivo Anticancer Drug Screen. Data for tumor model Adenocarcinoma 755 (subcutaneous) in B6D2F1 (BDF1) mice
# Conditions: endpoint: mean tumor weight, vehicle: carboxymethylcellulose (CMC), higher = larger tumour
# Method in brief: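 Transplantable tumor implanted; mice dosed with compound or vehicle; survival or tumor size recorded; ratio of treated to vehicle control reported.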
smiles,measurement,setting,value
CSc1ncnc2nc[nH]c12,T/C,"dose: 0.5 mg/kg/injection, schedule: Q#A X022 (ip)",64 % of control
same,T/C,"dose: 1.0 mg/kg/injection, schedule: Q01DX011 (im)",99 % of control
same,T/C,"dose: 1.0 mg/kg/injection, schedule: Q01DX011 (oral)",58 % of control
same,T/C,"dose: 1.0 mg/kg/injection, schedule: Q01DX011 (sc)",58 % of control
same,T/C,"dose: 1.5 mg/kg/injection, schedule: Q01DX011 (ip)",50 % of control
same,T/C,"dose: 2.5 mg/kg/injection, schedule: Q#A X022 (ip)",46 % of control
same,T/C,"dose: 3.0 mg/kg/injection, schedule: Q01DX011 (ip)",82 % of control
same,T/C,"dose: 5.0 mg/kg/injection, schedule: Q01DX011 (im)",89 % of control
same,T/C,"dose: 5.0 mg/kg/injection, schedule: Q01DX011 (oral)",5 % of control and 26 % of control
same,T/C,"dose: 5.0 mg/kg/injection, schedule: Q01DX011 (sc)",60 % of control
same,T/C,"dose: 5.0 mg/kg/injection, schedule: Q03DX004 (ip)",70 % of control
same,T/C,"dose: 5.0 mg/kg/injection, schedule: Q#A X022 (ip)",40 % of control
same,T/C,"dose: 6.0 mg/kg/injection, schedule: Q01DX011 (ip)",28 % of control
same,T/C,"dose: 7.5 mg/kg/injection, schedule: Q#A X022 (ip)",40 % of control
same,T/C,"dose: 10.0 mg/kg/injection, schedule: Q01DX001 (ip)",94 % of control
same,T/C,"dose: 10.0 mg/kg/injection, schedule: Q01DX011 (sc)",30 % of control
same,T/C,"dose: 10.0 mg/kg/injection, schedule: Q03DX004 (ip)",86 % of control
same,T/C,"dose: 12.0 mg/kg/injection, schedule: Q01DX011 (ip)",13 % of control
same,T/C,"dose: 12.5 mg/kg/injection, schedule: Q#A X022 (ip)",4 % of control
same,T/C,"dose: 15.0 mg/kg/injection, schedule: Q01DX011 (im)",8 % of control
same,T/C,"dose: 15.0 mg/kg/injection, schedule: Q01DX011 (oral)",5 % of control
same,T/C,"dose: 15.0 mg/kg/injection, schedule: Q01DX011 (sc)",4 % of control
same,T/C,"dose: 25.0 mg/kg/injection, schedule: Q01DX001 (ip)",53 % of control
same,T/C,"dose: 25.0 mg/kg/injection, schedule: Q01DX006 (iv)",36 % of control
same,T/C,"dose: 25.0 mg/kg/injection, schedule: Q01DX011 (im)",6 % of control
same,T/C,"dose: 25.0 mg/kg/injection, schedule: Q01DX011 (ip)",1 % of control
same,T/C,"dose: 25.0 mg/kg/injection, schedule: Q01DX011 (oral)",11 % of control
same,T/C,"dose: 25.0 mg/kg/injection, schedule: Q03DX004 (ip)",82 % of control
same,T/C,"dose: 25.0 mg/kg/injection, schedule: Q#A X022 (ip)",2 % of control
same,T/C,"dose: 50.0 mg/kg/injection, schedule: Q01DX001 (ip)",41 % of control
same,T/C,"dose: 50.0 mg/kg/injection, schedule: Q01DX006 (iv)",37 % of control
same,T/C,"dose: 50.0 mg/kg/injection, schedule: Q01DX011 (ip)",1 % of control
same,T/C,"dose: 50.0 mg/kg/injection, schedule: Q01DX011 (oral)",1 % of control and 3 % of control
same,T/C,"dose: 50.0 mg/kg/injection, schedule: Q03DX004 (ip)",80 % of control
same,T/C,"dose: 50.0 mg/kg/injection, schedule: Q#A X022 (ip)",2 % of control
same,T/C,"dose: 75.0 mg/kg/injection, schedule: Q01DX001 (ip)",80 % of control
same,T/C,"dose: 75.0 mg/kg/injection, schedule: Q03DX004 (ip)",14 % of control
same,T/C,"dose: 100.0 mg/kg/injection, schedule: Q01DX001 (ip)",46 % of control
same,T/C,"dose: 100.0 mg/kg/injection, schedule: Q01DX006 (iv)",21 % of control
same,T/C,"dose: 100.0 mg/kg/injection, schedule: Q01DX011 (ip)",1 % of control
same,T/C,"dose: 100.0 mg/kg/injection, schedule: Q01DX011 (oral)",5 % of control
same,T/C,"dose: 125.0 mg/kg/injection, schedule: Q01DX001 (ip)",37 % of control
same,T/C,"dose: 150.0 mg/kg/injection, schedule: Q03DX004 (ip)",2 % of control
same,T/C,"dose: 200.0 mg/kg/injection, schedule: Q01DX006 (iv)",4 % of control
same,T/C,"dose: 375.0 mg/kg/injection, schedule: Q01DX001 (ip)",53 % of control
